{
  "source": "patent US9617517B2",
  "about": "“Small chemical compound which promotes induction of differentiation of stem cells into insulin-producing cells and method for inducing differentiation of stem cells into insulin-producing cells using said small chemical compound” (NATIONAL UNIVERSITY CORPORATION KUMAMOTO UNIVERSITY, priority 2011, dated 2017)",
  "key": {"[1]": {"test_system": "mouse ES cells (Pdx1/GFP)", "experiment": "Differentiation of mouse ES cells into insulin positive cells on nano fiber plate, immunostaining and quantitative image analysis", "format": "cell-based", "from_the_text": "Two ES cell lines, one expressing green fluorescent protein (GFP) under the control of insulin 1 promoter, designed ING (Higuchi Y., Shiraki N., Yamane K, Qin Z., Mochitate K., Araki K., Senokuchi K., Yamagata K., Hara M., Kume K., and Kume S., Synthesized basement membranes direct the differentiation of mouse embryonic stem cells into pancreatic lineages. J. Cell Science, 123, 2733-2742, 2010), and the other one expressing GFP under the control of Pdx1 promoter, designated SK7 (Shiraki N, Yoshida T, Araki K, et al. Guided differentiation of embryonic stem cells into Pdx1-expressing regional-specific definitive endoderm. Stem Cells. 2008; 26:874-885), were used. Both cell lines were maintained on mouse embryonic fibroblast (MEF) feeders in Glasgow minimum essential medium (Invitrogen) containing 1000 units/ml leukemia inhibitory factor (LIF; Chemicon), 15% Knocked-out Serum Replacement (KSR; Gibco), 1% fetal bovine serum (FBS; Hyclone), 100 μM nonessential amino acids (NEAA; Invitrogen), 2 mM L-glutamine (L-Gln; Invitrogen), 1 mM sodium pyruvate (Invitrogen), 50 units/ml penicillin and 50 μg/ml streptomycin (PS; Invitrogen) and 100 μM β-mercaptoethanol (β-ME; Sigma), as ES maintenance medium.\nFor the differentiation studies, ES cells were plated at 5,000 cells per well in Corning 96 well plate with Ultra-Web Synthetic Polyamine Surface (#3873XX1, Corning Coster, Cambridge, Miss.), and cultured. The cells were cultured in Dulbecco's Modified Eagle Medium (DMEM: Invitrogen, Glasgow, UK) containing 4500 mg/L glucose, supplemented with NEAA, L-Gln, PS, β-ME, 10 μg/ml insulin (Sigma-Aldrich), 5.5 μg/ml transferrin (Sigma-Aldrich), 6.7 pg/ml selenium (Sigma-Aldrich), and 0.25% Albmax (Invitrogen), 10 ng/mL recombinant human activin-A (R&D Systems, Minneapolis, Minn.), 5 ng/mL; recombinant human bFGF for 7 days (d1-d7) (I of FIG. 1). And then, the medium was changed to RPMI 1640 medium (Invitrogen) containing 2000 mg/L glucose (Sigma, St Louis, Mo.), 1 μM Retinoic acid (Sigma-Aldrich), 50 ng/ml Human Recombinant Fibroblast Growth Factor-10 (Peprotech, Rocky Hill, N.J.), B27 SUPPLEMENT (Invitrogen) and 0.25 μM 3-Keto-N-(aminoethyl-aminocaproyl-dihydrocinnamoyl) cyclopamine Shh Signaling Antagonist II (Calbiochem, San Diego, Calif.) on d7 to d11 (II of FIG. 1). Finally, the medium was switched to DMEM containing 1000 mg/L glucose supplemented with NEAA, L-Gln, PS, β-ME, 10 μg/ml insulin (Sigma-Aldrich), 5.5 μg/ml transferrin (Sigma-Aldrich), 6.7 pg/ml selenium (Sigma-Aldrich), 0.25% Albmax (Invitrogen) and 10 mM nicotinamide (Sigma-Aldrich) on d11 to d17 (III of FIG. 1). Media were replaced every 2 days with fresh medium and growth factors until d17.\nAll tested small chemical compounds were solved in dimethyl sulfoxide (DMSO) at given concentration. Compounds were added on d11, d13 and d15 in a medium. Final concentration of DMSO was adjusted at 1.0% in all experiments for compounds.\nAfter 17 days cell culture, cultured ES cells were fixed in 4% paraformaldehyde in PBS for 30 min at room temperature, and rinsed several times with PBS. Then, cells were incubated in the added diluted primary antibody in 20% Blocking One (Nacalai tesque, Tokyo, Japan) in PEST (0.1% Tween-20 in PBS) in a humidified chamber for overnight at 4° C. After washing the cells in PBST, cells were incubated with the secondary antibody in 20% Blocking One for 2 hr at room temperature in dark. After washing off the secondary antibody in PBST, cells were counterstained with […] (DAPI) (Roche Diagnostics). The following antibodies were used as First antibodies: Rabbit anti-GFP (MBL International Corp., Woburn, Mass.), Mouse anti-Insulin (Sigma). The following antibodies were used as Secondary antibodies: Alexa 568-conjugated, Alexa 488-conjugated antibodies (Invitrogen) Cells were counterstained with DAPI (Roche Diagnotics, Basel, Switzerland)."}, "Ngn3/GFP mouse ES cells": {"test_system": "Ngn3/GFP mouse ES cells", "experiment": "Ngn3 positive cell inducing rate", "format": "cell-based", "settings": "TBZ 2.5 μM or dBu-cAMP 0.6 μM; addition days 9-11, 11-13 or 9-13; day 13 (FIG. 16C)", "protocol": "The influence exerted on the Ngn3 positive cell inducing rate by addition of TBZ (2.5 μM) or dBu-cAMP (0.6 μM) was confirmed. FIG. 16A is a view schematically showing the addition periods of TBZ or dBu-cAMP, and the addition periods are a) on days 9 to 11 of culture, b) on days 11 to 13 of culture, and c) on days 9 to 13 of culture.\nFirst, the compound was not added or TBZ was added on days 9 to 13 of culture (period c), and visible light photographs and fluorescence of Ngn3/GFP mouse ES cells were observed on day 13 of culture. The left one is a visible light photograph and the right one is fluorescence.\nNext, the compound was not added, or TBZ or dBu-cAMP was added under the above-described conditions a), b) and c), and the proportion of GFP positive cells on day 13 of culture was checked. The ratios of the proportions of GFP positive cells and Ngn3 positive cells when the ratio in the case of no addition is 1 are shown in FIG. 16C. […] The order of intensity of the effect was a), c), b) in descending order."}},
  "data": [
    {"smiles": "CCCC(=O)Nc1ncnc2c1ncn2[C@@H]1O[C@@H]2COP(=O)(O)O[C@H]2[C@H]1OC(=O)CCC", "note": "[Dibutyryl- cAMP, dibutyrate-cAMP]", "values": [
      {"measurement": "increase of number of insulin positive cells", "setting": "[1]; 0.6 μM dBu-cAMP (FIG. 11B)", "value": "about 7 fold"},
      {"measurement": "increase of number of insulin-expressing cells", "setting": "[1]; NS cells, 0.63 μM dBu-cAMP d11-d17 (FIG. 11A)", "value": 2.9, "unit": "fold"},
      {"measurement": "effect on differentiation into insulin-expressing cells", "setting": "[1]; compound added d11-d17, insulin staining d17 (FIG. 4, 5, 7, 8, 10)", "value": "enhanced the differentiation into insulin-expressing cells"},
      {"measurement": "Relative value of Ins positive cells", "setting": "[1]; number of cells with no compound = 1, concentration of each compound (μM), added d11, d13, d15, analysed d17", "value": 4.9},
      {"measurement": "number of GFP positive cells", "setting": "Ngn3/GFP mouse ES cells", "value": "increased in all conditions"}
    ]}
  ]
}
